Patent publication EP4230701A1, “4-STYRYL COUMARINS DERIVATIVES AS FLUORESCENT LABELS FOR BIOMOLECULES” (Universidade de Évora, priority 2022, dated 2023)
Where “and” joins values, the source holds several entries; their conditions need not be identical. Equal values may be shown once. Read-outs that look alike come from different tables or passages of the source.

What was measured:
Assay type in all cases: physicochemical
[1] = Fluorescence emission spectra in acetonitrile; conditions: Emission maxima in acetonitrile
Procedure: (§1) All starting materials and reagents were analytical grade, purchased from Aldrich and used without further purification. The organic solvents were dried over appropriate drying agents and distilled prior to use. UV-Vis absorption spectra were recorded on the Thermo Electron Spectrophotometer Corporation, model Nicolet Evolution 300, using acetonitrile (CH3CN) as solvent. Fluorescence spectra were recorded on a PerkinElmer Model LS 55 spectrophotometer. FTMS-ESI mass spectra were obtained on an Thermo Scientific Q Exactive Orbitrap Mass Spectrometer. Nuclear magnetic resonance (NMR) spectra were recorded at 400 MHz for ^1H NMR and at 100 MHz for ^13C NMR, on a Brucker Advance III spectrometer. For NMR spectra, deuterated chloroform (CDCl3) was used as solvent. The chemical shift (π) in ppm; coupling constants (J); relative intensity is indicated by the number of protons (H); multiplicities are indicated by singlet (s), doublet (d), double-doublet (dd), triplet (t), quadruple (q) and multiplet (m); coupling constants are given in Hertz (Hz).
as §1, with “400MHz” for “400 MHz”, “100MHz” for “at 100 MHz”, “^13C,” for “^13C NMR,”, “(CDCl3) or deuterated methanol (CD3OD)” for “(CDCl3)”, “(δ)” for “(π)”

[2] = Fluorescence quantum yield in ethanol against 7-diethylamino-4-methylcoumarin as standard
[3] = UV-Vis absorption spectra in acetonitrile; conditions: for λabs: Absorption maxima in acetonitrile
Procedure: as §1
as §1, with “400MHz” for “400 MHz”, “100MHz” for “at 100 MHz”, “^13C,” for “^13C NMR,”, “(CDCl3) or deuterated methanol (CD3OD)” for “(CDCl3)”, “(δ)” for “(π)”

[4] = Fluorescence quantum yield in ethanol, standard 7-diethylamino-4-methylcoumarin (ΦF = 0.73 in ethanol)
[5] = Molar extinction coefficient at longest wavelength transition
[6] = Molar extinction coefficient at longest wavelength transition (Table 5)

| SMILES | λem [1] [nm] | ΦF [2, 4] | λabs [3] [nm] | ε [3, 5] [cm^-1M^-1] | ε [3, 6] [cm^-1m^-1] | bathochromic shift ([3]; compared with its precursor (2)) | ΦF [2] | visible shoulder (lowest energy S0 → S1 transition) ([3]; experimental absorption spectrum) | bathochromic shift ([3]; compared with its precursor (1)) [nm] |
| --- | --- | --- | --- | --- | --- | --- | --- | --- | --- |
| CCN(CC)c1ccc2c(C)cc(=O)oc2c1 [Compound 1, 7-diethylamino-4-methylcoumarin, reference compound] | 434 | 0.73 | 371 | 22910 | 22910 |  |  |  |  |
| CCN(CC)c1ccc2c(c1)OC(=C(C#N)C#N)C=C2C [Compound 3, 2-(7-(diethylamino)-4-methyl-2H-chromen-2-ylidene)malononitrile] | 519 | 0.05 | 477 | 38000 |  | more than 100 nm |  |  |  |
| CCN(CC)c1ccc2c(c1)OC(=C(C#N)C#N)C=C2/C=C/c1ccc(C(=O)OC)cc1 [Compound 4] | 620 | 0.04 and 0.08 | 520 | 19000 |  |  |  |  |  |
| CCN(CC)c1ccc2c(c1)OC(=C(C#N)C#N)C=C2/C=C/c1ccccc1 [Compound 5] | 603 | 0.16 | 516 | 17000 |  |  |  |  |  |
| CCN(CC)c1ccc2c(c1)OC(=C(C#N)C#N)C=C2/C=C/c1ccc(N(C)C)cc1 [Compound 6, (E)-2-(7-(diethylamino)-4-(4-(dimethylamine)styryl)-2H-chromen-2ylidene)malononitrile] | 597 |  | 496 | 34000 |  |  | 0.95 and 0.98 | around 536 nm |  |
| CCN(CC)c1ccc2c(c1)OC(=C(C#N)C#N)C=C2/C=C/c1ccc(OC)cc1 [Compound 7, (E)-2-(7-(diethylamino)-4-(4-methoxystyryl)-2H-chromen-2-ylidene)malononitrile] | 602 | 0.20 | 522 | 24000 |  |  |  |  |  |
| CCN(CC)c1ccc2c(c1)OC(=C(C#N)C#N)C=C2/C=C/c1ccc(OCCCCCC(=O)O)cc1 [Compound 8, (E)-6-(4-(2-(2-(dicyanomethylene)-7-(diethylamino)-2H-chromen-4yl)vinyl)phenoxy)hexanoic acid] | 596 | 0.28 | 519 | 24000 |  |  |  |  |  |
| CCN(CC)c1ccc2c(c1)OC(=C(C#N)C#N)C=C2/C=C/c1ccc(OCCCCCC(=O)ON2C(=O)CCC2=O)cc1 [Compound 9, (E)-2,5-dioxopyrrolidin-1-yl 6-(4-(2-(2-(dicyanomethylene)-7-(diethylamino)-2Hchromen-4-yl)vinyl)phenoxy)hexanoate] | 597 | 0.29 | 523 | 24000 |  |  |  |  |  |
| CCN(CC)c1ccc2c(C)cc(=[N+]3CCCCC3)oc2c1.O=[N+]([O-])[O-] [Compound 10, 1-(7-(diethylamino)-4-methyl-2H-chromen-2-ylidene)-piperidin-1-ium nitrate] | 490 | 0.14 | 437 |  | 21000 |  |  |  | > 66 |
| CCN(CC)c1ccc2c(/C=C/c3ccc(C(=O)OC)cc3)cc(=[N+]3CCCCC3)oc2c1.O=[N+]([O-])[O-] [Compound 11, (E)-1-(7-(diethylamino)-4-(4-(methoxycarbonyl)styryl)-2H-chromen-2ylidene)piperidin-1-ium nitrate] | 609 | 0.08 | 484 | 18000 | 18000 |  |  |  |  |
| CCN(CC)c1ccc2c(/C=C/c3ccccc3)cc(=[N+]3CCCCC3)oc2c1.O=[N+]([O-])[O-] [Compound 12, (E)-1-(7-(diethylamino)-4-styryl-2H-chromen-2-ylidene)-piperidin-1-ium nitrate] | 525 | 0.34 | 467 |  | 17000 |  |  |  |  |
| CCN(CC)c1ccc2c(/C=C/c3ccc(N(C)C)cc3)cc(=[N+]3CCCCC3)oc2c1.O=[N+]([O-])[O-] [Compound 13, (E)-1-(7-(diethylamino)-4-(4-(dimethylamino)styryl)-2H-chromen-2ylidene)piperidin-1-ium nitrate] | 608 |  | 485 | 39000 | 39000 |  |  |  |  |
| CCN(CC)c1ccc2c(/C=C/c3ccc(OC)cc3)cc(=[N+]3CCCCC3)oc2c1.O=[N+]([O-])[O-] [Compound 14, (E)-1-(7-(diethylamino)-4-(4-methoxystyryl)-2H-chromen-2-ylidene)piperidin-1-ium nitrate] | 578 |  | 410 |  | 30000 |  |  |  |  |
| CCN(CC)c1ccc2c(/C=C/c3ccc(OCCCCCC(=O)O)cc3)cc(=[N+]3CCCCC3)oc2c1.O=[N+]([O-])[O-] [Compound 15, (E)-1-(4-(4-((5-carboxypentyl)oxy)styryl)-7-(diethylamino)-2H-chromen-2ylidene)piperidin-1-ium nitrate] | 578 | 0.90 | 406 |  | 30000 |  |  |  |  |
| CCN(CC)c1ccc2c(/C=C/c3ccc(OCCCCCC(=O)ON4C(=O)CCC4=O)cc3)cc(=[N+]3CCCCC3)oc2c1.O=[N+]([O-])[O-] [Compound 16, (E)-1-(7-(diethylamino)-4-(4-((6-((2,5-dioxopyrrolidin-1-yl)oxy)-6oxohexyl)oxy)styryl)-2H-chromen-2-ylidene)piperidin-1-ium nitrate] | 577 | 0.92 | 404 |  | 30000 |  |  |  |  |
